The source of these data is patent US10124033B2, “Peptides and methods of use” (BAXALTA INCORPORATED, priority 2014, dated 2018).

Residues, ends and D or L forms follow the SMILES beside them.

A word on the IC50: it is the concentration that inhibits the measured activity by half. A high value points to weaker potency in that assay. A word on the EC50: it is the midpoint of the concentration-response curve. Usually koff stands for the first-order rate constant of dissociation. Usually kon stands for a measure of how fast the partners come together. In general, Kd refers to the free concentration of one partner at which half of the binding sites on the other are occupied at equilibrium, for simple one-to-one binding.

The target of series [1] is T1, Protein S (Homo sapiens, UniProt P07225).
T1 sequence (P07225 41-676 limits assumed): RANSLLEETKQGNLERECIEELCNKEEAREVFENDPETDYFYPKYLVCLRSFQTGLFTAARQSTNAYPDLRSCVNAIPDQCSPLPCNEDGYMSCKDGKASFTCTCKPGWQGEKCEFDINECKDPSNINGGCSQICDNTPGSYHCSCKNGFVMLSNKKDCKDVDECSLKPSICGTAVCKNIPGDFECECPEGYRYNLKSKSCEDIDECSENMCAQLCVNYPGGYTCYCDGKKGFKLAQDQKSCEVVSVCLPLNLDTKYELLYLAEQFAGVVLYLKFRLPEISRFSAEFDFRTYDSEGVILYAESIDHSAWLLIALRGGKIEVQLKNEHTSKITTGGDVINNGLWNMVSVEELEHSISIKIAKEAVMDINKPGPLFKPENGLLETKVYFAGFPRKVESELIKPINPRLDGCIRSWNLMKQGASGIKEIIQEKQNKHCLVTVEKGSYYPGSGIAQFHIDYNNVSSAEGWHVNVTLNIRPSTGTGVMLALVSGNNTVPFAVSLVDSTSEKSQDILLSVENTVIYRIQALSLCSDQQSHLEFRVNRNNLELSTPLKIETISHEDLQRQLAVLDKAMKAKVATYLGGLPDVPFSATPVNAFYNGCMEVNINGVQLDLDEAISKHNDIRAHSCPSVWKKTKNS
Put plainly: competition (IC50) ELISA with biotinylated tracer peptide JBS0684. It is filed as binding. The conditions noted are these: competition ELISA, tracer JBS0684; re-synthesized peptides. The gist of the method:
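Competition ELISA on plate-coated Protein S (3 μg/mL): serially diluted peptides mixed with biotinylated tracer JBS0684 at its binding-ELISA EC90, incubated 1.5 h in HEPES/NaCl/CaCl2/Tween buffer, pH 7.35. Bound tracer detected via HRP-streptavidin and TMB colour; IC50 from competition curve.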
A general note: An ELISA detects its analyte on a solid surface through an enzyme-linked reagent.

The target of series [2] is T2, Protein S/APC cofactor activity (Homo sapiens, UniProt P07225).
T2 construct: host or cells: plasma
T2 sequence (P07225 41-676 limits assumed): T1 sequence (P07225 41-676 limits assumed)
Put plainly: CAT assay: Protein S/APC-dependent thrombin generation in FVIII-inhibited plasma. Format: biochemical. The conditions noted are these: Protein S-depleted plasma supplemented with APC and Protein S, FVIII-inhibited. The protocol: Peptides also were tested for improvement of Protein S/APC-dependent thrombin generation in hemophilic plasma using a CAT assay. Protein S enhances the anticoagulation of APC in plasma. The CAT assay quantifies the effect of Protein S on APC-mediated thrombin generation initiated via the extrinsic coagulation pathway (Nicolaes, Blood Coagul. Fibrinolysis, 8:28 (1997)). APC (35 nM) and Protein S (25 nM) was added to Protein 5-depleted plasma, and plasma samples were incubated with high titer heat inactivated anti-human FVIII plasma raised in goat (4490 BU/ml; Baxter BioScience, Vienna, Austria; 50 BU/ml final plasma concentration). Thrombin formation in plasma was followed by calibrated automated thrombography (CAT) in a Fluoroskan Ascent® reader (Thermo Labsystems, Helsinki, Finland) and quantified via the thrombin peak-height. Thrombin generation was determined at high tissue factor (TF) concentration in the absence and in the presence of APC at a concentration that reduces the peak height to ˜20%. The inhibitory effect of peptides described herein on the APC cofactor activity of Protein S (PS) in plasma was measured in FVIII-inhibited pooled normal plasma supplemented with APC. Complete (100%) Protein S/APC inhibition is the height of the thrombin peak without addition of APC. Lack of (0%) PS/APC inhibition correlates to the thrombin peak-height value with a certain amount of APC. Peptides were ranked by their normalized values in comparison to the mean of wild-type controls including SD at two defined peptide concentrations (EC50 and EC90).
Exemplary conditions for the CAT assay are as follows. Protein S-depleted plasma was supplemented with 35 nM APC and […]. Stock APC was diluted with 10 pM TF and 15 μM PL. Lyophilized peptides were dissolved in 100% DMSO to a 5 mM stock concentration and further diluted with HNABSA5-buffer+0.1% Tween80. […] In a 96 well Immulon 2HB (transparent), U-bottom (ThermoElectron) plate was mixed 80 μl plasma (+CTI+Z994-5), 10 μl peptide dilution, and 10 μl APC-TF-PL-MIX or Calibrator. Thrombin generation was initiated by dispensing 20 μL of FluCa reagent containing fluorogenic substrate and HEPES-buffered CaCl2 (100 mM) into each well. Fluorescence intensity was recorded at 37° C. using the Fluoroskan Ascent® reader (filters 390 nm excitation and 460 nm emission). The parameters of the resulting thrombin generation curves were calculated using the Thrombinoscope™ software (Thrombinoscope) and thrombin calibrator to correct for inner filter and substrate consumption effects (Hemker, Pathophysiol Haemost Thromb, 33: 415 (2003)).

A short description of series [3]: plasma stability in mouse plasma. As to conditions: 37° C. Format: in vitro ADME. The procedure: (§1) Affinity and activity of all 18 peptides was improved compared to parent JBS2572. […] Activity and stability were improved up to 1.5-fold. Plasma stability was determined in pooled normal human plasma and mouse plasma at 37° C.; exemplary results also are provided in Table 3.

Series [4] is described as follows: plasma stability in pooled normal human plasma. It is filed as in vitro ADME. The conditions noted are these: pooled normal human plasma, 37° C., 6 hours. The procedure:
as §1

Series [5] has as its target T3, human full-length Protein S (Homo sapiens, UniProt P07225).
T3 construct: using human full-length Protein S and human GAS6
T3 sequence (P07225 41-676 limits assumed): T1 sequence (P07225 41-676 limits assumed)
Briefly: Biacore (surface plasmon resonance) on immobilized Protein S. It is filed as binding. The conditions noted are these: Biacore. The protocol: Protein S affinity also was determined via Biacore (Biacore 3000 or Biacore T200) using human full-length Protein S and human GAS6. Briefly, 1000 RU of Protein S or GAS6 were immobilized on a CMS chip. In order to probe the kinetics of Protein S binding peptides to Protein S, the peptides were injected at various concentrations in a HBS-buffer containing 3 mM CaCl2 and 1% DMSO to the flow cell and allowed to interact with the immobilized proteins on the sensor chip. The chip could be regenerated with 4 M MgCl2 in HBS-buffer. Sensorgrams were fitted to a Langmuir binding model for the determination of kon and koff and the calculation of KD. Peptides were tested on their specificity to Protein S with peptide binding studies on the anti-target GAS6.
For orientation: In SPR one partner is held on a chip, and binding of the other changes the refractive index at the surface.

With `CC(=O)N[C@H](C(=O)NCC(=O)N[C@@H](Cc1c[nH]cn1)C(=O)N[C@H](C(=O)N[C@@H](CO)C(=O)N[C@@H](C)C(=O)NCC(=O)N[C@@H](Cc1c[nH]c2ccccc12)C(=O)N[C@@H](Cc1ccc(O)cc1)C(=O)N[C@@H](CC(=O)O)C(=O)N[C@@H](Cc1ccc(O)cc1)C(=O)N[C@@H](CC(N)=O)C(=O)N[C@@H](Cc1ccccc1)C(=O)N[C@@H](CC(=O)O)C(=O)N[C@@H](CC(=O)O)C(=O)N[C@@H](Cc1ccc(O)cc1)C(=O)N[C@@H](CCCNC(=N)N)C(=O)N[C@@H](CCC(=O)O)C(=O)N[C@@H](Cc1ccccc1)C(=O)N[C@H](C(N)=O)[C@@H](C)O)C(C)C)[C@@H](C)O` [JBS2546] (Ac-TGHVSAGWYDYNFDDYREFT-NH2), the IC50 in series [1] is 6.8 nM. In series [2], the EC50 worked out at 30 nM.

As for `CC(=O)NCC(=O)NCC(=O)N[C@@H](Cc1c[nH]cn1)C(=O)N[C@H](C(=O)N[C@@H](CO)C(=O)N[C@@H](C)C(=O)NCC(=O)N[C@@H](Cc1c[nH]c2ccccc12)C(=O)N[C@@H](Cc1ccc(O)cc1)C(=O)N[C@@H](CC(=O)O)C(=O)N[C@@H](Cc1ccc(O)cc1)C(=O)N[C@@H](CC(N)=O)C(=O)N[C@@H](Cc1ccccc1)C(=O)N[C@@H](CC(=O)O)C(=O)N[C@@H](Cc1c[nH]cn1)C(=O)N[C@@H](Cc1ccc(O)cc1)C(=O)N[C@@H](CCCNC(=N)N)C(=O)N[C@@H](CCC(=O)O)C(=O)N[C@@H](Cc1ccccc1)C(=O)N[C@H](C(N)=O)[C@@H](C)O)C(C)C` [JBS2552] (Ac-GGHVSAGWYDYNFDHYREFT-NH2), the IC50 in series [1] turned out to be 5.5 nM. The compound also gave a 50% effective concentration (EC50) in series [2] of 24 nM.

`CC(=O)N[C@H](C(=O)NCC(=O)N[C@@H](Cc1c[nH]cn1)C(=O)N[C@H](C(=O)N[C@@H](CO)C(=O)N[C@@H](C)C(=O)NCC(=O)N[C@@H](Cc1c[nH]c2ccccc12)C(=O)N[C@@H](Cc1ccc(O)cc1)C(=O)N[C@@H](CC(=O)O)C(=O)N[C@@H](Cc1ccc(O)cc1)C(=O)N[C@@H](CC(N)=O)C(=O)N[C@@H](Cc1ccccc1)C(=O)N[C@@H](CC(=O)O)C(=O)N[C@@H](CC(C)C)C(=O)N[C@@H](Cc1ccc(O)cc1)C(=O)N[C@@H](CCCNC(=N)N)C(=O)N[C@@H](CCC(=O)O)C(=O)N[C@@H](Cc1ccccc1)C(=O)N[C@H](C(N)=O)[C@@H](C)O)C(C)C)[C@@H](C)O` [JBS2584] (Ac-TGHVSAGWYDYNFDLYREFT-NH2) gave an IC50 in series [1] of 2.7 nM. Further, the response in series [2] was half-maximal at 9 nM (EC50).

Consider `CC(=O)N[C@H](C(=O)NCC(=O)N[C@@H](Cc1c[nH]cn1)C(=O)N[C@H](C(=O)N[C@@H](CO)C(=O)N[C@@H](C)C(=O)NCC(=O)N[C@@H](Cc1c[nH]c2ccccc12)C(=O)N[C@@H](Cc1ccc(O)cc1)C(=O)N[C@@H](CC(=O)O)C(=O)N[C@@H](Cc1ccc(O)cc1)C(=O)N[C@@H](CC(N)=O)C(=O)N[C@@H](Cc1ccccc1)C(=O)N[C@@H](CC(=O)O)C(=O)N[C@@H](Cc1c[nH]cn1)C(=O)N[C@@H](Cc1ccc(O)cc1)C(=O)N[C@@H](CC(C)C)C(=O)N[C@@H](CCC(=O)O)C(=O)N[C@@H](Cc1ccccc1)C(=O)N[C@H](C(N)=O)[C@@H](C)O)C(C)C)[C@@H](C)O` [JBS2586] (Ac-TGHVSAGWYDYNFDHYLEFT-NH2), for which the IC50 in series [1] was 2.6 nM. Moreover, it took 19 nM to reach a half-maximal effect in series [2] (EC50).

Take `CC(=O)N[C@H](C(=O)NCC(=O)N[C@@H](Cc1c[nH]cn1)C(=O)N[C@H](C(=O)N[C@@H](CO)C(=O)N[C@@H](C)C(=O)NCC(=O)N[C@@H](Cc1c[nH]c2ccccc12)C(=O)N[C@@H](Cc1ccc(O)cc1)C(=O)N[C@@H](CC(=O)O)C(=O)N[C@@H](Cc1ccc(O)cc1)C(=O)N[C@@H](CC(N)=O)C(=O)N[C@@H](CCCCN)C(=O)N[C@@H](CC(=O)O)C(=O)N[C@@H](Cc1c[nH]cn1)C(=O)N[C@@H](Cc1ccc(O)cc1)C(=O)N[C@@H](CCCNC(=N)N)C(=O)N[C@@H](CCC(=O)O)C(=O)N[C@@H](Cc1ccccc1)C(=O)N[C@H](C(N)=O)[C@@H](C)O)C(C)C)[C@@H](C)O` [JBS2602] (Ac-TGHVSAGWYDYNKDHYREFT-NH2): the IC50 in series [1] worked out at 3.4 nM. In addition, the half-maximal effective concentration (EC50) in series [2] was found to be 30 nM.

For the compound `CC(=O)N[C@H](C(=O)NCC(=O)N[C@@H](Cc1c[nH]cn1)C(=O)N[C@H](C(=O)N[C@@H](CO)C(=O)N[C@@H](C)C(=O)NCC(=O)N[C@@H](Cc1c[nH]c2ccccc12)C(=O)N[C@@H](Cc1ccc(O)cc1)C(=O)N[C@@H](CC(=O)O)C(=O)N[C@@H](Cc1ccc(O)cc1)C(=O)N[C@@H](CC(N)=O)C(=O)N[C@@H](Cc1ccccc1)C(=O)N[C@@H](CC(=O)O)C(=O)N[C@@H](CCCCN)C(=O)N[C@@H](Cc1ccc(O)cc1)C(=O)N[C@@H](CCCNC(=N)N)C(=O)N[C@@H](CCC(=O)O)C(=O)N[C@@H](Cc1ccccc1)C(=O)N[C@H](C(N)=O)[C@@H](C)O)C(C)C)[C@@H](C)O` [JBS2604] (Ac-TGHVSAGWYDYNFDKYREFT-NH2), the IC50 in series [1] worked out at 4.1 nM. Also, a half-maximal response in series [2] (EC50) required 19 nM.

`CC[C@H](C)[C@H](NC(=O)[C@H](CC(=O)O)NC(=O)[C@H](CCCCN)NC(=O)[C@H](CC(N)=O)NC(=O)[C@H](Cc1ccc(O)cc1)NC(=O)[C@H](CC(=O)O)NC(=O)[C@H](Cc1ccc(O)cc1)NC(=O)[C@H](Cc1c[nH]c2ccccc12)NC(=O)CNC(=O)[C@H](C)NC(=O)[C@@H](NC(=O)[C@@H](NC(=O)[C@@H](NC(=O)[C@H](Cc1ccc(O)cc1)NC(=O)[C@H](CCC(=O)O)NC(C)=O)[C@@H](C)CC)C(C)C)[C@@H](C)O)C(=O)N[C@@H](Cc1ccc(O)cc1)C(=O)N[C@@H](Cc1ccc(O)cc1)C(=O)N[C@@H](CCC(=O)O)C(=O)N[C@@H](Cc1ccccc1)C(=O)N[C@@H](CCCCN)C(N)=O` [JBS3263] (Ac-EYIVTAGWYDYNKDIYYEFK-NH2): the “Stability in mouse plasma; 4 hours [%]” value in series [3] is 56 ± 6%. The “Stability in human plasma; 6 hours [%]” value in series [4] stood at 74 ± 12%. In series [5] (Table 3, read-out: koff), the koff was determined as 0.000264 s⁻¹. In addition, in series [5] (Table 3, read-out: kon), the kon amounted to 629000 M⁻¹ s⁻¹. In addition, in series [5] (affinity-matured and modified peptides, read-out: KD), the Kd is 0.4 nM.
